Activity calls are given as the source filed them. The rule behind the calls is not given here.

This is an account of results in ChEMBL document CHEMBL3045895 (Med Chem Res, 2012).

The target in assay [1] is Acetylcholinesterase (Homo sapiens) (UniProt P22303). Nature of the assay: Inhibition of acetylcholinesterase (unknown origin) using acetylthiocholine iodide as substrate at 500 uM incubated for 15 min prior to substrate addition measured for 15 min by spectrophotometric analysis.
Another assay concerns the target Urease (Canavalia ensiformis, UniProt P07374). The assay can be described thus: Inhibition of Canavalia ensiformis (jack bean) urease using urea as substrate after 15 min by indophenol-based spectrophotometric analysis.
The target of assay [2] is T1, Beta-glucuronidase (Homo sapiens) (UniProt P08236).
T1 sequence (whole entry): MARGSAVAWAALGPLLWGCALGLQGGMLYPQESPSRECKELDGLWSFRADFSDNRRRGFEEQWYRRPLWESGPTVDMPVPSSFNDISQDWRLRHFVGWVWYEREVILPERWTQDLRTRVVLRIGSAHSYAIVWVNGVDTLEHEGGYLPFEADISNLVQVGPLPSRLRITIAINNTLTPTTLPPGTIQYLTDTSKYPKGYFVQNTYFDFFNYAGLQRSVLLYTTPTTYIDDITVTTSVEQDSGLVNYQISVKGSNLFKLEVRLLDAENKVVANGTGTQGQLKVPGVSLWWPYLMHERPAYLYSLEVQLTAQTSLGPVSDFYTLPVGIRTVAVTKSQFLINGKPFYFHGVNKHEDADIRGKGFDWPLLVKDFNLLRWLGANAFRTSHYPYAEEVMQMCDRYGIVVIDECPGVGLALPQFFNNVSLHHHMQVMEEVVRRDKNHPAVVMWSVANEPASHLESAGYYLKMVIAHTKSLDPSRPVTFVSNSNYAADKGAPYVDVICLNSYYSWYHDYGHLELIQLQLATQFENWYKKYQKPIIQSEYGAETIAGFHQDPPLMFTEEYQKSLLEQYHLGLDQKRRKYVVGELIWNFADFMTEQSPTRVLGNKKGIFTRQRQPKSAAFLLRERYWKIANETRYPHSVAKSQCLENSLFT
The assay can be described thus: Inhibition of beta-glucuronidase (unknown origin) using p-nitrophenyl-beta-D-glucuronide as substrate at 500 uM incubated for 30 min prior to substrate addition by spectrophotometric analysis.

Assay [3] concerns the target T2, Cholinesterase (Homo sapiens, UniProt P06276). Nature of the assay: Inhibition of butyrylcholinesterase (unknown origin) using butyrylthiocholine chloride as substrate at 500 uM incubated for 15 min prior to substrate addition measured for 15 min by spectrophotometric analysis.
The species entered for a further assay is Homo sapiens. Nature of the assay: Inhibition of alpha-chymotrypsin (unknown origin) using N-succinyl-phenylalanine-p-nitroanilide as substrate at 500 uM incubated for 25 min prior to substrate by spectrophotometric analysis.
Assay [4] deals with Urease (Canavalia ensiformis) (UniProt P07374). The assay can be described thus: Inhibition of Canavalia ensiformis (jack bean) urease using urea as substrate at 500 uM after 15 min by indophenol-based spectrophotometric analysis.
Chain of Urease (Canavalia ensiformis) (P07374 whole entry, looked up): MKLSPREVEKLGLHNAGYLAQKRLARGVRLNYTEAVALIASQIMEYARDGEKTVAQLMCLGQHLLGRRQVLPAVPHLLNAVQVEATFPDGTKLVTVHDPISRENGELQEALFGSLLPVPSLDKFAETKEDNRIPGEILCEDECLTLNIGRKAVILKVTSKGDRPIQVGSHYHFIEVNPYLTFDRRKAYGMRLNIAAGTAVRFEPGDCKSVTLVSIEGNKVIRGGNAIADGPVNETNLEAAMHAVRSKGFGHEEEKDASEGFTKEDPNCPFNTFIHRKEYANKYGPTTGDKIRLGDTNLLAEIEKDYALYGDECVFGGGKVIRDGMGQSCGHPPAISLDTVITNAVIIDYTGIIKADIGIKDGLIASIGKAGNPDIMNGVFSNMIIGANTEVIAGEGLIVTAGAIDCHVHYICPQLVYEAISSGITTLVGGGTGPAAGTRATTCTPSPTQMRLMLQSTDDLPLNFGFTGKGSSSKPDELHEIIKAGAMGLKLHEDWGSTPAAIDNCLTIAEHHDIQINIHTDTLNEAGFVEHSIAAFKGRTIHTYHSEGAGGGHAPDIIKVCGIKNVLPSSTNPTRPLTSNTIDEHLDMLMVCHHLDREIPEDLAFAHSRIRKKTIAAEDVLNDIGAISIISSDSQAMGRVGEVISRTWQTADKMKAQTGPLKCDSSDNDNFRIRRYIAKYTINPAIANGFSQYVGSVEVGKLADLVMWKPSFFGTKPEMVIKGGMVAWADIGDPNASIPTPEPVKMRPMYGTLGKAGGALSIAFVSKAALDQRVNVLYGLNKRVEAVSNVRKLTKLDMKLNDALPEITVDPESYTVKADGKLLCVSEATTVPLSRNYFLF
The target of assay [5] is T2, Cholinesterase. The assay can be described thus: Inhibition of butyrylcholinesterase (unknown origin) using butyrylthiocholine chloride as substrate incubated for 15 min prior to substrate addition measured for 15 min by spectrophotometric analysis.
A further assay addresses T3, Beta-glucuronidase (Homo sapiens, UniProt P08236).
T3 sequence (P08236 whole entry): T1 sequence (whole entry)
The assay can be described thus: Inhibition of beta-glucuronidase (unknown origin) using p-nitrophenyl-beta-D-glucuronide as substrate incubated for 30 min prior to substrate addition by spectrophotometric analysis.

Chain of Acetylcholinesterase (Homo sapiens) (P22303 whole entry): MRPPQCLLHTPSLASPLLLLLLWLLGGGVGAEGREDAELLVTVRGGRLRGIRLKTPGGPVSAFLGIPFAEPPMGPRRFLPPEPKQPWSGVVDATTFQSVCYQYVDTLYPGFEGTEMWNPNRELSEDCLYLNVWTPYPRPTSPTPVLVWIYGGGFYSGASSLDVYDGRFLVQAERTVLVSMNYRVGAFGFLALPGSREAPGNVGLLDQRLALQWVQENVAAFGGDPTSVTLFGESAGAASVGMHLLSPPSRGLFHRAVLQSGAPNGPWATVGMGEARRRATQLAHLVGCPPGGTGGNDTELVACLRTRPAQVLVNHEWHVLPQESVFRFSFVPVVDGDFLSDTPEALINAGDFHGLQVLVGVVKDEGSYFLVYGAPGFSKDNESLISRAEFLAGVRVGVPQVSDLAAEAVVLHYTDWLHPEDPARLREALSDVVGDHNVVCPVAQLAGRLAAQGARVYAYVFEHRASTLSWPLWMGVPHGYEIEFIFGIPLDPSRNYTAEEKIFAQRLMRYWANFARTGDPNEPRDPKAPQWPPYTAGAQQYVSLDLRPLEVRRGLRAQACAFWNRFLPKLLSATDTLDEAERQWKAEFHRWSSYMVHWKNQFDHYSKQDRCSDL
Chain of Urease (P07374 whole entry): as the sequence (P07374 whole entry, looked up) above
T2 sequence (P06276 whole entry): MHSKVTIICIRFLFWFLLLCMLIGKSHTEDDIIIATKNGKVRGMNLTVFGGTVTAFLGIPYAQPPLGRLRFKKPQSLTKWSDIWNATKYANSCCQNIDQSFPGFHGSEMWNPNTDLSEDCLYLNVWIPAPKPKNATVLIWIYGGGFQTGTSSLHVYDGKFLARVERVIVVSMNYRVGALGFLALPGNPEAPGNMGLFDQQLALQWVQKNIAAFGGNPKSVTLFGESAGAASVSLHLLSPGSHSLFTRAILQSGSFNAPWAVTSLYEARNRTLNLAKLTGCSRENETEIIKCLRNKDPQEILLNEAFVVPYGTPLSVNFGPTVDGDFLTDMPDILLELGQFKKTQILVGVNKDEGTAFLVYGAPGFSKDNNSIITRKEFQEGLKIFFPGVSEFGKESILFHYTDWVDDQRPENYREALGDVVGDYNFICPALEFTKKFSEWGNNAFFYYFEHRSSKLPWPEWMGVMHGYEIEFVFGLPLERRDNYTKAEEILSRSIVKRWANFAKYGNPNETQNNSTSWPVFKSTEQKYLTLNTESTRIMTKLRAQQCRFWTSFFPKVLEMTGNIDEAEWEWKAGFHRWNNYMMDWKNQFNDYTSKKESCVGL

The IC50 is the midpoint of a concentration-inhibition curve. With `Cc1cc(C)n(CO)n1`, the inhibition result (in assay [1]; in assay [2]; at Cholinesterase [3]; in the assay listed under Homo sapiens) was “inactive” each time. The compound further had a 50% inhibitory concentration (IC50) on Urease of 94.3 µM.

In the case of `Cc1cc(CN(CCO)Cc2cc(C)n(C)n2)nn1C`, the inhibition result (in assay [4]; in assay [1]; in assay [2]; in the assay listed under Homo sapiens) was “inactive” each time. On Cholinesterase [5], this compound yielded an IC50 of 68 µM.

With `Cc1cc(C)n(CN(CCO)Cn2nc(C)cc2C)n1`, the inhibition entry (in assay [1]; in assay [2]; at Cholinesterase [3]; in the assay filed under Homo sapiens) was “inactive” each time. This compound also returned an IC50 against Urease of 44.7 µM.

On to `Cc1cc(C)n(CN(Cn2nc(C)cc2C)C2CCCCC2)n1`, for which the inhibition result (in assay [1]; on Cholinesterase [3]; in the assay listed under Homo sapiens) was “inactive” throughout. Further, the IC50 is 43.5 µM on Urease and 457 µM at Beta-glucuronidase.
